Assay results taken from patent US5880099A, “Inositol polyphosphates and methods of using same” (The Regents of the University of California, priority 1997, dated 1999).
Entries after “also recorded” stand apart in the source; their conditions may differ.

Legend:
Assay type in all cases: cell-based, human
[1] = test system: T84 cells (histamine-stimulated chloride ion secretion); assay: Histamine-stimulated chloride ion secretion (short circuit current) in T84 monolayers; conditions: for effect on histamine-stimulated / calcium-mediated chloride ion secretion (in words): T84 cells; for activity at 200 µM: 200 μM compound alone
Experimental: Enantiomerically pure 1,2-Bt2 -Ins(3,4,5,6)P4 /AM was synthesized to determine if 1,2-Bt2 -Ins(3,4,5,6)P4 /AM mediates the uncoupling of chloride ion secretion from intracellular calcium concentrations. […] After 7-10 days of incubation on SNAP-WELLS (Corning Costar; Cambridge, Mass.), monolayers had formed tight junctions. Cell monolayers were preincubated with 100, 200 or 400 μM Bt2 -Ins(3,4,5,6)P4 /AM for 30 min prior to mounting. After an additional 30 min, 0.1 mM histamine was added and chloride ion secretion was monitored. Chloride ion secretion was measured as short circuit current (Isc) across T84 monolayers grown to confluence and mounted in Ussing chambers equipped with voltage clamps (Physiologic Instruments; San Diego, Calif.). Data was acquired and analyzed using "Acquire and Analyze" software (Physiologic Instruments).
(§1) Initial studies were directed towards understanding structural determinants of Ins(3,4,5,6)P4 responsible for the inhibitory effect on calcium-mediated chloride ion secretion. A series of cell permeable inositol polyphosphate derivatives were synthesized. These derivatives contained either one or two non-hydrolyzable chemical groups on the 1, 2 or 3 position. T84 monolayers were preincubated for 30 minutes with 200 μM of 2-Bt-1-Me-Ins(3,4,5,6)P4 /AM, Me2 -Ins(3,4,5,6)P4 /AM, Me2 -Ins(1,4,5,6)P4 /AM or 2-Bt-3-Me-Ins(1,4,5,6)P4 /AM.
(§2) Following the incubation, cells were mounted in Ussing chambers. Calcium-mediated chloride ion secretion was stimulated with histamine (10^-4 M). Control values were the response to histamine in coincubated monolayers. Data are represented as mean peak ΔIsc ±SEM, expressed as % control for 8 to 10 experiments. Significant differences were identified using the Student's two-tailed t test.

[2] = test system: colonic epithelial T84 cells (calcium-mediated chloride ion secretion); assay: Inhibition of calcium-mediated chloride ion secretion (Table I summary)
Excerpt: The invention provides compounds that are agonists or antagonists of inositol polyphosphates. Inositol polyphosphate derivatives can function as inositol polyphosphate agonists and antagonists. The effects of compounds of the invention on Ins(3,4,5,6)P4 - and PtdInsP3 -mediated inhibition of calcium-mediated chloride ion secretion are described in the Examples and summarized in Table I.
Enantiomerically pure 1,2-Bt2 -Ins(3,4,5,6)P4 /AM was synthesized to determine if 1,2-Bt2 -Ins(3,4,5,6)P4 /AM mediates the uncoupling of chloride ion secretion from intracellular calcium concentrations. T84 cells (passages 18-48) were maintained as described previously (Weymer, et al., J. Clin. Invest. 76:1828 (1985)), which is incorporated herein by reference. After 7-10 days of incubation on SNAP-WELLS (Corning Costar; Cambridge, Mass.), monolayers had formed tight junctions. Cell monolayers were preincubated with 100, 200 or 400 μM Bt2 -Ins(3,4,5,6)P4 /AM for 30 min prior to mounting. After an additional 30 min, 0.1 mM histamine was added and chloride ion secretion was monitored. Chloride ion secretion was measured as short circuit current (Isc) across T84 monolayers grown to confluence and mounted in Ussing chambers equipped with voltage clamps (Physiologic Instruments; San Diego, Calif.). Data was acquired and analyzed using "Acquire and Analyze" software (Physiologic Instruments).

[3] = test system: T84 cells (Ins(3,4,5,6)P4 inhibition of histamine-stimulated chloride ion secretion); assay: Reversal of Bt2 -Ins(3,4,5,6)P4 /AM inhibition of histamine-stimulated chloride ion secretion in T84 cells; conditions: for Peak ΔIsc (% Control) after histamine (100 μM): 200 μM antagonist + 200 μM Bt2 Ins (3,4,5,6)P4 /AM, mean ± SEM, 30 min; for reversal of the inhibitory effect of Bt2 -Ins(3,4,5,6)P4 /AM / Ins(3,4,5,6)P4-mediated inhibition (in words): T84 cells, histamine-stimulated
Experimental: as §1, §2
T84 cells were preincubated with cell permeant inositol polyphosphates as described above to determine if any of the inositol polyphosphate derivatives function as antagonists of Ins(3,4,5,6)P4 inhibition of calcium-mediated chloride ion secretion. Following histamine stimulation, short circuit current was measured. […] The % control shown in FIG. 3 represents ΔIsc over peak Isc in control monolayers stimulated with histamine. However, […]

[4] = test system: T84 colonic epithelial cells (carbachol-mediated inhibition of chloride ion secretion); assay: Reversal of carbachol-mediated inhibition of thapsigargin-stimulated chloride ion secretion in T84 cells; conditions: carbachol 10^-4 M, thapsigargin 1 μM
Experimental: T84 colonic epithelial cells were treated with D,L-1,2-cyclohexylidene-Ins(3,4,5,6)P4 /AM, 1-Bu-2-Bt-Ins(3,4,5,6)P4 /AM, Bu2 -Ins(3,4,5,6)P4 /AM, 3-Bt-2-Bu-Ins(1,4,5,6)P4 /AM, Bu2 -Ins(1,4,5,6)P4 /AM, 1-Bt-2-Bu-Ins(3,4,5,6)P4 /AM or 3-Bu-2-Bt-Ins(1,4,5,6)P4 /AM and the short circuit current was measured.
One set of cells was preincubated for 30 min with an inositol polyphosphate derivative. The other two sets of cells were preincubated with vehicle, alone. Measurement of Isc was initiated at time 0. At 5 min, carbachol (10^-4 M) was added to one set of cells preincubated with vehicle alone (designated "Carbachol" in FIG. 5) and to the set of cells preincubated with inositol polyphosphate derivatives (designated "Carbachol+D,L-1,2-Cyclohexylidene-Ins(3,4,5,6)P4 /AM" in FIG. 5A). At 30 min, 1 μM thapsigargin was added. Data were collected for n=4 to 6 experiments.

[5] = test system: T84 cells (carbachol-stimulated chloride ion secretion); assay: Carbachol-stimulated (calcium-mediated) chloride ion secretion in T84 cells; conditions: for effect on carbachol-stimulated / calcium-mediated chloride ion secretion (in words): T84 cells, preincubation
Experimental: The cell permeable derivative D,L-Bt3 -Ins(1,3,4)P3 /AM was synthesized. Colonic epithelial T84 cells were preincubated for 30 min with 400 μM D,L-Bt3 -Ins(1,3,4)P3 /AM prior to mounting in Ussing chambers and measuring ΔIsc. At 10 min, carbachol (10^-4 M) was added to transiently stimulate calcium-mediated chloride ion secretion. Data were the average of 8 experiments with p<0.04, unpaired, two-sided student's t-test. […]

[6] = Homo sapiens, T84, 0.5 h, mean ± SEM, read-out: Peak ΔIsc (% Control) after histamine (100 μM)

Compound: CC(=O)OCOP(=O)(OCOC(C)=O)O[C@H]1[C@H](OP(=O)(OCOC(C)=O)OCOC(C)=O)[C@@H](OP(=O)(OCOC(C)=O)OCOC(C)=O)[C@@H](Cl)[C@@H](Cl)[C@@H]1OP(=O)(OCOC(C)=O)OCOC(C)=O (relative stereo) [D,L-1,2-Cl2-dideoxy-Ins(3,4,5,6)P4 /AM, D,L-1,2-dichloro-1,2-dideoxy-myo-inositol 3,4,5,6-TKphosphate oct (acetoxymethyl) ester]
- activity at 400 µM ([1]; Homo sapiens, T84, 0.5 h, 400 μM compound alone, mean ± SEM, read-out: Peak ΔIsc (% Control) after histamine (100 μM)): 89.4 ± 7.8%
- effect on histamine-stimulated / calcium-mediated chloride ion secretion (in words) [1]: slight inhibitory effect on chloride ion secretion

Compound: CCCC(=O)O[C@@H]1[C@@H](OC(=O)CCC)[C@H](OP(=O)(OCOC(C)=O)OCOC(C)=O)[C@@H](OP(=O)(OCOC(C)=O)OCOC(C)=O)[C@H](OP(=O)(OCOC(C)=O)OCOC(C)=O)[C@H]1OP(=O)(OCOC(C)=O)OCOC(C)=O (relative stereo) [D,L-Bt2 -scyllo-Ins(3,4,5,6)P4 /AM, D,L-1,2-O-butyryl-scyllo-inositol 3,4,5,6-TKphosphate oct (acetoxymethyl) ester]
- effect on histamine-stimulated / calcium-mediated chloride ion secretion (in words) [1]: inhibit calcium-mediated chloride secretion
- effect on histamine-stimulated / calcium-mediated chloride ion secretion (in words) ([1]; listed as scyllo derivative of the cell permeable Bt2 -Ins(3,4,5,6)P4 /AM): at least as effective an inhibitor as the myo derivative
- Mechanism and Inositol Polyphosphate Pathway Affected ([2]; pathway: Ins (3,4,5,6)P4): Agonist of

Compound: CCCC(=O)O[C@H]1[C@@H](OC)[C@H](OP(=O)(OCOC(C)=O)OCOC(C)=O)[C@@H](OP(=O)(OCOC(C)=O)OCOC(C)=O)[C@H](OP(=O)(OCOC(C)=O)OCOC(C)=O)[C@H]1OP(=O)(OCOC(C)=O)OCOC(C)=O [2-Bt-1-Me-Ins(3,4,5,6)P4 /AM, 2-O-butyryl-1-O-methyl-myo-inositol 3,4,5,6-TKphosphate oct (acetoxymethyl) ester]
- activity at 200 µM [1, 6]: 87.3 ± 6.6%
- Mechanism and Inositol Polyphosphate Pathway Affected ([2]; pathway: Ins (3,4,5,6)P4): Antagonist of
- Peak ΔIsc (% Control) after histamine (100 μM) [3]: 117.7 ± 10.6 % Control
- reversal of the inhibitory effect of Bt2 -Ins(3,4,5,6)P4 /AM / Ins(3,4,5,6)P4-mediated inhibition (in words) [3]: enhanced chloride ion secretion; also recorded: reversed Ins(3,4,5,6)P4 -mediated inhibition of chloride ion secretion; also recorded: reversed the inhibitory effect of Bt2 -Ins(3,4,5,6)P4 /AM

Compound: CCCC(=O)O[C@@H]1[C@H](OC)[C@@H](OP(=O)(OCOC(C)=O)OCOC(C)=O)[C@H](OP(=O)(OCOC(C)=O)OCOC(C)=O)[C@@H](OP(=O)(OCOC(C)=O)OCOC(C)=O)[C@@H]1OP(=O)(OCOC(C)=O)OCOC(C)=O [2-Bt-3-Me-Ins(1,4,5,6)P4 /AM, 2-O-butyryl-3-O-methyl-myo-inositol 3,4,5,6-TKphosphate oct (acetoxymethyl) ester]
- activity at 200 µM [1, 6]: 106 ± 3.7%
- Peak ΔIsc (% Control) after histamine (100 μM) [3]: 69.7 ± 5.04 % Control
- reversal of the inhibitory effect of Bt2 -Ins(3,4,5,6)P4 /AM / Ins(3,4,5,6)P4-mediated inhibition (in words) [3]: had essentially no effect

Compound: CCCCO[C@@H]1[C@H](OCCCC)[C@@H](OP(=O)(OCOC(C)=O)OCOC(C)=O)[C@H](OP(=O)(OCOC(C)=O)OCOC(C)=O)[C@@H](OP(=O)(OCOC(C)=O)OCOC(C)=O)[C@@H]1OP(=O)(OCOC(C)=O)OCOC(C)=O [Bu2 -Ins(1,4,5,6)P4 /AM, D-2,3-Di-O-butyl-myo-inositol 1,4,5,6-tetrakisphosphate octakis(acetozymethyl)ester]
- reversal of carbachol-mediated inhibition of chloride ion secretion (in words) [4]: enhanced chloride ion secretion
- reversal of carbachol-mediated inhibition of chloride ion secretion (in words) ([4]; listed as 2,3-Bu2 -Ins(1,4,5,6)P4 /AM): did not reverse carbachol-mediated inhibition of chloride ion secretion stimulated by thapsigargin

Compound: CO[C@@H]1[C@H](OC)[C@@H](OP(=O)(OCOC(C)=O)OCOC(C)=O)[C@H](OP(=O)(OCOC(C)=O)OCOC(C)=O)[C@@H](OP(=O)(OCOC(C)=O)OCOC(C)=O)[C@@H]1OP(=O)(OCOC(C)=O)OCOC(C)=O [Me2 -Ins(1,4,5,6)P4 /AM, 2,3-di-O-methyl-myo-inositol 3,4,5,6-TKphosphate oct (acetoxymethyl) ester]
- activity at 200 µM [1, 6]: 120 ± 10.6%
- Peak ΔIsc (% Control) after histamine (100 μM) [3]: 68.4 ± 7.3 % Control
- reversal of the inhibitory effect of Bt2 -Ins(3,4,5,6)P4 /AM / Ins(3,4,5,6)P4-mediated inhibition (in words) [3]: had essentially no effect

Compound: CO[C@@H]1[C@H](OC)[C@H](OP(=O)(OCOC(C)=O)OCOC(C)=O)[C@@H](OP(=O)(OCOC(C)=O)OCOC(C)=O)[C@H](OP(=O)(OCOC(C)=O)OCOC(C)=O)[C@H]1OP(=O)(OCOC(C)=O)OCOC(C)=O [Me2 -Ins(3,4,5,6)P4 /AM, 1,2-di-O-methyl-myo-inositol 3,4,5,6-Tkphosphate oct (acetoxymethyl) ester]
- activity at 200 µM [1, 6]: 104 ± 11.1%
- Mechanism and Inositol Polyphosphate Pathway Affected ([2]; pathway: Ins (3,4,5,6)P4): Antagonist of
- Peak ΔIsc (% Control) after histamine (100 μM) [3]: 107.13 ± 10.2 % Control
- reversal of the inhibitory effect of Bt2 -Ins(3,4,5,6)P4 /AM / Ins(3,4,5,6)P4-mediated inhibition (in words) [3]: reversed the inhibitory effect of Bt2 -Ins(3,4,5,6)P4 /AM
- reversal of the inhibitory effect of Bt2 -Ins(3,4,5,6)P4 /AM / Ins(3,4,5,6)P4-mediated inhibition (in words) ([3]; listed as Me2 -Ins-(3,4,5,6)P4 /AM): reversed Ins(3,4,5,6)P4 -mediated inhibition of chloride ion secretion

Compound: di-palmitoyl-D,L-O-butyryl-phosphatidyl inositol 3,4,5-trisphosphate heptakis (acetoxymethyl) ester [diC16 -Bt-PtdInsP3 /AM]
- Mechanism and Inositol Polyphosphate Pathway Affected ([2]; pathway: PtdInsP3): Agonist of
- effect on carbachol-stimulated / calcium-mediated chloride ion secretion (in words) [5]: inhibited calcium-mediated chloride ion secretion
- inhibition of calcium-mediated chloride ion secretion ([5]; pretreatment of T84 cells, FIG. 7): up to 74%

Compound: phosphatidylinositol trisphosphate [PtdInsP3, reference compound]
- effect on carbachol-stimulated / calcium-mediated chloride ion secretion (in words) [5]: No inhibition of calcium-mediated chloride ion secretion
